Experimental data taken from US20030134859A1 (SANKYO COMPANY, LIMITED, priority 2000, published 2003).

Legend:
[1] = tested on: human colon cancer cells COL-2-JCK; assay: Inhibition of colony forming activity in human colon cancer cells; format: cell-based; details: Homo sapiens, 240 h; 1 μM test compound; 10 days; sum of colony areas vs control; read-out: Inhibition Rate (%) against the colony forming activity
Procedure: For the medium to culture the human colon cancer cells, D-MEM/F-12 medium containing inactivated bovine fetal serum at a concentration of 10% (GIBCO) was used. The human colon cancer cells COL-2-JCK (purchased from Institute for Experimental Animals) grown in mass formation in a plastic dish for the cell culture with an inner diameter of 100 mm were stripped off from the dish by using EDTA (ethylenediaminetetraacetic acid) and 0.05% trypsin solution. Then, a cell dilution solution was prepared at a concentration of 100 cells/mL solution which was diluted with the medium (D-MEM/F-12).
Three (3) mL of the cell solution were inoculated in each well of a 6-well plastic plate (300 cells/well). The test compound that was dissolved in DMSO solution so as to be a final concentration of 1 μM of the test compound and that of DMSO solution of 0.1% was added to each well. DMSO solution alone was added into the well for the control so as to be a final concentration of 0.1%.
The cells in each well were cultured for 10 days at 37° C. in the presence of 5% CO2. After the culturing was finalised, each well was washed once with Dulbecco-phosphate-buffer-saline solution (bivalent anion). Then, 1.5 ml of neutral buffered formalin solution containing 0.02% crystal violet was added to each well and the plate was kept stationary for 5 min for fixation and staining the cells. After fixation and staining, the cells were washed with water and were air-dried. Then the sum of the colony area (mm^2) of the stained cancer cells was calculated by using an image analyzer PCA-11 (SystemScience). From the calculated values, the inhibition rate (%) of the compound against the colony forming activity was obtained based on the following equation.
Inhibition Rate (%) against the colony forming activity=(1−A/B)×100
A: Sum of Colony Areas in the Group Treated with 1 μM of the Test Compound
B: Sum of Colony Areas in the Control Group

TNF-α production = assay: Inhibitory activity against cytokine (TNF-α) production in LPS-stimulated RAW264.7 cells; format: cell-based, mouse; details: Mus musculus, RAW264.7, 15 h, 1 μM test compound, LPS 10 ng/mL
Procedure: The mouse monocyte/macrophage cell line, RAW264.7 (ATCC TIB71) was purchased from Dainippon Pharmaceutical Co., Ltd. The RAW264.7 cells were cultured in a CO2 incubator (37° C., 95% of humidity, 5% of CO2) by using the Dulbecco's modified Eagle's medium (DMEM medium; GIBCO, Cat. No. 11995-040) containing bovine fetal serum (the final concentration: 10% (v/v), MOREGATE, lot No. 474030), penicillin G (the final concentration: 50 units/mL […], GIBCO) and streptomycin (the final concentration: 20 μg/mL, GIBCO).
Sixty (60) μL of the RAW264.7 cell suspension (83,000 cells/mL) were plated into each well of a 96-well microplate (5,000 cells/well). After the cells were cultured for 4 hr in a CO2 incubator, 40 μL of DMEM medium containing 25 ng/mL of LPS (Sigma-Aldrich Japan K. K.) were added into each well (final concentration of LPS: 10 ng/mL). The test compound dissolved in DMSO at a concentration of 1 mM was diluted with DMEM medium by 20 times. Then 2 μL/well of the diluted solution were added to wells containing the plated cells (final concentration of the test compound: 1 μM). As the control, 2 μL/well of DMSO diluted with DMEM medium by 20 times were added to wells containing the plated cells either with LPS (final concentration: 10 ng/mL) or without LPS. After these cells were cultured in a CO2 incubator for 15 hr, the supernatant of the medium was recovered. The amount of mTNF-α in the medium supernatant was determined with a mouse TNF-α ELISA kit Quantikine M (R&D System), according to the experiment protocol attached with the kit.
The inhibitory activity of the test compound against TNF-α production was calculated according to the following equation.
A: The amount of TNF-α in the presence of test compound
B: The amount of TNF-α in the control without LPS
C: The amount of TNF-α in the control with 10 ng/mL of LPS
Inhibitory Activity of the Test Compound against TNF-α Production (%)=100−(A−B)/(C−B)×100

[2] = tested on: Mouse preadipocyte strain 3T3-L1; assay: Inhibition of differentiation as an indication of acetic acid uptake; format: cell-based; details: Mus musculus, 3T3-L1, 0.1 μM test substance, control (0.01% dimethylsulfoxide) = 100%, read-out: Rate of Uptake (%) of [2-14C] acetic acid
Outline: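 Differentiation is indexed by 1 hr [2-14C]acetic acid incorporation, measured by scintillation counting and given as uptake relative to 0.01% DMSO control (100%). Mouse 3T3-L1 preadipocytes, pre-grown 10 days, received 0.1 μM test substance throughout a 4-day insulin/IBMX/dexamethasone induction, followed by 2 days' maintenance culture.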

human PPAR γ 2 [3] = molecular target: T1, human PPAR γ 2 (Homo sapiens, UniProt P37231); assay: Inhibitory activity against PPAR γ transcription in the presence of agonist compound A, luciferase reporter; format: cell-based; details: in the presence of 10 nM compound A (agonist); MG63 cells transfected with pSG5-hPPARg and pGV-P2-PPRE; 24 hr
T1 construct: expressed in transfected cells; host or cells: human osteosarcoma MG63, transiently co-transfected with pSG5-hPPARg and the reporter pGV-P2-PPRE
T1 sequence (P37231 1-505): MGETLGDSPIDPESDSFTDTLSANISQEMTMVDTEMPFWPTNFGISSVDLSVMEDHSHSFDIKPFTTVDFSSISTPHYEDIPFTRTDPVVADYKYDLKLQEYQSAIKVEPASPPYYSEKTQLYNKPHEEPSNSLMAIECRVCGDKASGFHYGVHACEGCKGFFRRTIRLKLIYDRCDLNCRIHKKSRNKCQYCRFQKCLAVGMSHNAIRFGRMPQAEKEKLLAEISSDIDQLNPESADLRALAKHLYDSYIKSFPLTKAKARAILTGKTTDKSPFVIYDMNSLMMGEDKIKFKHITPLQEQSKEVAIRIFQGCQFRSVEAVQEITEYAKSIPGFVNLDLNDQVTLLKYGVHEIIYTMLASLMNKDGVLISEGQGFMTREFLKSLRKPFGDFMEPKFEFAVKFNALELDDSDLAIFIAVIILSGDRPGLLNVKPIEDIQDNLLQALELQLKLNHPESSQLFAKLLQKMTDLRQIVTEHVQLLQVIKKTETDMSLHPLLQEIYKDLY
Text: The primers of the polymerase chain reaction (hereinafter “PCR”) were designed according to the gene sequence of human PPAR γ 2 (GenBANK accession No. D83233). […] For this, 2 kinds of polynucleotides shown in the sequence numbers 1 and 2 in the sequence table described below (hereinafter “S1” and “AS1”, respectively) were used as PCR primers.
(§1) In order to determine transcriptional activity via PPAR γ, 2 kinds of polynucleotides represented in sequence numbers 3 and 4 in the sequence table described below (hereinafter “S2” and “AS2”, respectively) were used for construction of the reporter plasmid having PPAR responsive element. The DNA fragment inserted was designed based on the gene sequence in the promoter region of rat acylCo-A oxidase (J. D. Tugwood, EMBO J., 11 (2), pp433-439 (1992)). For insertion of the DNA fragment into the reporter plasmid pGV-P2 (TOYO INK MFG CO., LTD), a NheI site and an XhoI site were added to the S2 and AS2, respectively.
Using cDNA library (Clontech) derived from human adipose tissue as a template, DNA oligomers S1 and AS1 that were synthesized in the procedure 1 as primers and Ex-Taq™ (TAKARA BIO INC.) as a thermostable DNA polymerase-PCR was carried out. […] Each cycle consisted of incubation at 94° C. for 1 min for denaturation of the template, then at 55° C. for 30 sec for annealing of DNA oligomers the PCR primer, and then at 72° C. for 30 sec for extension of the chain. The obtained DNA fragments with approximately 1500 base pairs were digested at the Bgl II sites and were inserted into BamHI sites of pSG5. Thus a human PPAR γ expression plasmid named pSG5-hPPAR g was obtained.
(§2) Vector pGV-P2 digestion products was prepared by digestion using the restriction enzymes, NheI and XhoI, and purified by 1.0% agarose-gel electrophoresis. The DNA oligomers, S2 and AS2 obtained in Procedure 2, were mixed together and were incubated in a hot bath at 94° C. for 1 min. After the annealing was partially broken, they were further incubated at 25° C. for 1 hr. Thus double-stranded DNA with annealing of S2 and AS2 was formed. Then, the terminus of the double-stranded DNA with annealing of S2 and AS2 was phosphorylated with DNA polynucleotide kinase (TOYOBO CO., LTD). After that, it was ligated to the pGV-P2 digestion products which were prepared previously using the NheI site and XhoI site. Thus the reporter plasmid pGV-P2-PPRE was obtained.
(§3) Using the plasmid obtained by the procedures 3 and 4, transformation of Escherichia coli HB-101 strain was carried out by conventional methods. HB-101 strain having the plasmid was incubated in L-broth medium (containing 10 g of trypton (Difco), 5 g of yeast extract (Difco), 5 g of sodium chloride in 1 L of aqueous solution) containing 100 μg/ml of ampicillin at 37° C. for 17 hrs. Then, each plasmid was purified by the alkaline-SDS method and employed for the gene transfection to mammalian cells. After mixing the pSG5-hPPARg, PGV-P2-PPRE and LipofectAMINE reagent (GIBCO BRL), the human osteosarcoma MG63 was transiently transfected. Then the cells were recovered. The recovered cells were plated on a 96-well plate so as to be 30,000 cells/well and cultured in a CO2 incubator (NAPCO) at 37° C. for 24 hr under the condition of 5% CO2, 95%-RH.
Ten (10) nM of the following compound A (although compound A is described here as a representative compound, the compound is not limited to compound A, if the compound exerts a PPAR r agonistic activity) and various concentrations of the test compound were added to culturing medium of the cells prepared in the Procedure 5.

human PPAR γ 2 [4] = molecular target: T1, human PPAR γ 2; assay: PPAR γ transcriptional activity, luciferase reporter, test compound alone; format: cell-based; details: concentration indicating Emax/2, MG63 cells transfected with pSG5-hPPARg and pGV-P2-PPRE, 24 hr
Procedure: The primers of the polymerase chain reaction (hereinafter “PCR”) were designed according to the gene sequence of human PPAR γ 2 (GenBANK accession No. D83233). In order to insert the genes into the BamHI site of the plasmid pSG5 ([…] CLONING SYSTEMS), Bgl II sites were added upstream and downstream of the genes encoding human PPAR γ 2 protein. For this, 2 kinds of polynucleotides shown in the sequence numbers 1 and 2 in the sequence table described below (hereinafter “S1” and “AS1”, respectively) were used as PCR primers.
as §1
Using cDNA library (Clontech) derived from human adipose tissue as a template, DNA oligomers S1 and AS1 that were synthesized in the procedure 1 as primers and Ex-Taq™ (TAKARA BIO INC.) as a thermostable DNA polymerase-PCR was carried out. As a result of the PCR, the c.a. 1500 bps DNA fragments were amplified. Each cycle consisted of incubation at 94° C. for 1 min for denaturation of the template, then at 55° C. for 30 sec for annealing of DNA oligomers the PCR primer, and then at 72° C. for 30 sec for extension of the chain. The obtained DNA fragments with approximately 1500 base pairs were digested at the Bgl II sites and were inserted into BamHI sites of pSG5. Thus a human PPAR γ expression plasmid named pSG5-hPPAR g was obtained. The nucleotide sequence of the inserted DNA fragment was confirmed to be identical sequence to the human PPAR γ 2 reported by the dideoxy method.
as §2, §3
Various concentrations of the test compound alone were added to culturing medium of the cells prepared in the Procedure 5. After 24 hr of culturing, LT2.0 (TOYO INK MFG CO., LTD), a luciferase substrate, was added to the medium free culture plate. […]

| IC50 (human PPAR γ 2 [3]) [nM] | EC50 (human PPAR γ 2 [4]) [nM] | SMILES | inhibition at 1 µM [1] [%] | inhibition at 1 µM (TNF-α production) [%] | activity at 0.1 µM [2] [%] |
| --- | --- | --- | --- | --- | --- |
| – | – | COc1ccc2nc(NC(=O)c3cc([N+](=O)[O-])ccc3Cl)sc2c1 [Example 67, N-(6-Methoxybenzothiazol-2-yl)-(2-chloro-5-nitrophenyl)carboxamide] | 31 | 23.2 | 70.2 |
| 790 | 360 | Cc1nc(NS(=O)(=O)c2ccc(NC(=O)c3cc([N+](=O)[O-])ccc3Cl)cc2)oc1C [Example 97, N-[4-(4,5-Dimethyloxazol-2-yl)aminosulfonyl]phenyl-(2-chloro-5-nitrophenyl)carboxamide] | 3 | – | – |
